Laboratory results published in the Kinase Knowledgebase extract (Sharma et al. 2016).

target: PIK3CG (human) (UniProt P48736); test: Inhibition of PIK3CG Kinase Activity
Sequence (P48736 whole entry, looked up): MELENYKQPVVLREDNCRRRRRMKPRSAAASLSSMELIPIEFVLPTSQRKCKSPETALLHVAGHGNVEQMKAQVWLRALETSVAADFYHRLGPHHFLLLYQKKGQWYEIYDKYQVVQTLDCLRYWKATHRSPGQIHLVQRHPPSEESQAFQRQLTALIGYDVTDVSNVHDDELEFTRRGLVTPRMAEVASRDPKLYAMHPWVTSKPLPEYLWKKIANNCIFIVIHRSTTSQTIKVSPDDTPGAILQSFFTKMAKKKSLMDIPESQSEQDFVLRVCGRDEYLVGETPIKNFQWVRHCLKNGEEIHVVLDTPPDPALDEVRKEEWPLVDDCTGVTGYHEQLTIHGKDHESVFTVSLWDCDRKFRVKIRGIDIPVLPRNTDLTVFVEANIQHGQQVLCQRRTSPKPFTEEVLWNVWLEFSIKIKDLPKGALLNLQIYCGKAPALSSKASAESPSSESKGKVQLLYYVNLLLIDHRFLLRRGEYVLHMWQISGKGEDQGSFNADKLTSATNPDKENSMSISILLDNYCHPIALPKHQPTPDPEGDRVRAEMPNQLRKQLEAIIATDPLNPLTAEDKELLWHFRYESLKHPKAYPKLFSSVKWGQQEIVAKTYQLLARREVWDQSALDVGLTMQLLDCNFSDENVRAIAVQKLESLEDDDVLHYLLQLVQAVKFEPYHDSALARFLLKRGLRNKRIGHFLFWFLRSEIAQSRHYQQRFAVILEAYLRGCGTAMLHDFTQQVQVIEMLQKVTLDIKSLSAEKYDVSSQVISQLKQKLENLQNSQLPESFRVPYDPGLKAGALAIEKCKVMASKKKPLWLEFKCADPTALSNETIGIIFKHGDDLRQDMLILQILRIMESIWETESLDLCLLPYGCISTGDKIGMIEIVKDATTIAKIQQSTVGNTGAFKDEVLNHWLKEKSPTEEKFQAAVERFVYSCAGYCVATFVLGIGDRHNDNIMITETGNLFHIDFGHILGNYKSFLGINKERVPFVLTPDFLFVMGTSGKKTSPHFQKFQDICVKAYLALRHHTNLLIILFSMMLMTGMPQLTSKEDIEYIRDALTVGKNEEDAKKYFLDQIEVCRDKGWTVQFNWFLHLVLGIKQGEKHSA

SMILES | Ki
COc1cc(-c2cc(C)c3c(n2)C(C)(C)N(c2cnn(CC(F)(F)F)c2)C3=O)cnc1OC(C)C | < 0.1 µM
COc1cc(-c2ccc3c(n2)C(OC)N(c2cnn(CC(F)(F)F)c2)C3=O)cnc1OC (stereo unspecified) | < 0.1 µM
COc1ncc(-c2cc(C)c3c(n2)CN(c2cnn(CC(F)(F)F)c2)C3=O)cc1Cl | < 0.1 µM
Cc1cc(-c2cncc(S(C)(=O)=O)c2)nc2c1C(=O)N(c1cnn(CC(F)(F)F)c1)[C@@H]2C | < 0.1 µM
CCOc1cc(N2Cc3nc(-c4cnc(OC)c(OC)c4)cc(C)c3C2=O)ccn1 | < 0.1 µM
CCn1ccc(N2Cc3nc(-c4cncc(OC)c4)cc(C)c3C2=O)n1 | < 0.1 µM
COCCO[C@H]1c2nc(-c3cnc(OC)c(OC)c3)ccc2C(=O)N1c1cnn(CC(F)(F)F)c1 | 0.1 to 0.49 µM
CO[C@H]1c2nc(-c3cncc(OCC(F)F)c3)cc(C)c2C(=O)N1c1cnn(CC(F)(F)F)c1 | < 0.1 µM
Cc1cc(-c2cncc(OC(F)F)c2)nc2c1C(=O)N(c1cnn(C[C@H](C)O)c1)[C@@H]2C | < 0.1 µM
COc1ncc(-c2cc(C)c3c(n2)CN(c2cn[nH]c2)C3=O)cc1OC(C)C | < 0.1 µM
Cc1cc(-c2cncc(S(C)(=O)=O)c2)nc2c1C(=O)N(c1cnn(CC(F)(F)F)c1)C2 | < 0.1 µM
COc1cncc(-c2cc(C)c3c(n2)C(C)N(c2ccn(C)n2)C3=O)c1 (stereo unspecified) | < 0.1 µM
CCn1cc(N2Cc3nc(-c4cncc(OC)c4)cc(C)c3C2=O)cn1 | < 0.1 µM
COc1cncc(-c2cc(C)c3c(n2)[C@@H](C)N(c2ccn(C[C@H](C)O)n2)C3=O)c1 | < 0.1 µM
Cc1ccc(-c2cc(C)c3c(n2)CN(c2cnn(CC(F)(F)F)c2)C3=O)cc1O | < 0.1 µM
COc1ccc(-c2cc(C)c3c(c2)C(C)N(c2cnn(CC(F)(F)F)c2)C3=O)cc1OC (stereo unspecified) | < 0.1 µM
COc1cc(-c2ccc3c(n2)[C@H](C)N(c2ccn(CC(C)(C)O)n2)C3=O)cnc1OC | < 0.1 µM
COc1cc(-c2ccc3c(c2)CN(c2cnn([C@@H](C)C#N)c2)C3=O)cnc1OC | < 0.1 µM
COc1cc(-c2ccc3c(n2)CN(c2cnn(CC4CNC(=O)O4)c2)C3=O)cnc1OC (stereo unspecified) | < 0.1 µM
COc1ccc(-c2cc(C)c3c(n2)CN(c2cnn(C(C)(C)C#N)c2)C3=O)cc1OC | < 0.1 µM
COc1cc(-c2cc(OC)c3c(n2)CN(c2cnn(CC#N)c2)C3=O)cnc1OC | < 0.1 µM
COc1cc(-c2cc(C)c3c(n2)CN(c2cnn(C(C)(C)C#N)c2)C3=O)cnc1OC | < 0.1 µM
COCCC1c2nc(-c3cnc(OC)c(OC)c3)cc(C)c2C(=O)N1c1cnn(CC(F)(F)F)c1 (stereo unspecified) | < 0.1 µM
Cc1cc(-c2cccnc2)nc2c1C(=O)N(c1cnn(CC#N)c1)C2 | < 0.1 µM
CCn1cc(N2Cc3cc(-c4ccc(OC)c(OC)n4)ccc3C2=O)cn1 | 0.1 to 0.49 µM
COCCOCCOc1ncc(-c2cc(C)c3c(n2)CN(c2cnn(CC(F)(F)F)c2)C3=O)cc1OC | < 0.1 µM
COc1cc(-c2ccc3c(n2)C(N2CC(OC)C2)N(c2cnn(CC(F)(F)F)c2)C3=O)cnc1OC (stereo unspecified) | 0.1 to 0.49 µM

SMILES | Ki
CCOc1ncc(-c2cc(C)c3c(n2)[C@@]2(CCCO2)N(c2ccn(CC)n2)C3=O)cc1OC | 0.1 to 0.49 µM
COc1cc(-c2ccc3c(n2)C(C)N(c2cnn(CC(C)(C)O)c2)C3=O)cnc1OC (stereo unspecified) | 0.1 to 0.49 µM
COc1cc(OC)cc(-c2cc(C)c3c(n2)CN(c2cnn(C(C)(C)C#N)c2)C3=O)c1 | < 0.1 µM
CCn1cc(N2Cc3cc(-c4cnc(OC)nc4OC)ccc3C2=O)cn1 | 0.1 to 0.49 µM
COc1ncc(-c2cc(C)c3c(n2)CN(c2ccn(C(C)(C)C#N)n2)C3=O)cc1OCC(F)F | < 0.1 µM
N#CCn1cc(N2Cc3cc(-c4cncc(S(N)(=O)=O)c4)ccc3C2=O)cn1 | < 0.1 µM
COc1cc(-c2ccc3c(n2)CN(c2cnn(C4CC4)c2)C3=O)cnc1OC | < 0.1 µM
C#CCNC(=O)c1cc(-c2cc(C)c3c(n2)C(C)(C)N(c2cnn(CC(F)(F)F)c2)C3=O)cnc1OC | < 0.1 µM
COc1cc(-c2ccc3c(n2)CN(c2cnn(CC4CCCN4)c2)C3=O)cnc1OC (stereo unspecified) | 0.1 to 0.49 µM
COCCOCCOc1cc(-c2cc(C)c3c(n2)CN(c2cnn(CC(F)(F)F)c2)C3=O)cnc1OC | < 0.1 µM
CCn1cc(N2Cc3nc(-c4cnc(OC)c(OC)c4)ccc3C2=O)nn1 | < 0.1 µM
COc1cncc(N2Cc3nc(-c4cnc(OC)c(OC)c4)ccc3C2=O)c1 | < 0.1 µM
COc1cc(-c2cc(C)c3c(n2)[C@@](C)(OC)N(c2cnn(CC(F)(F)F)c2)C3=O)cnc1OC | < 0.1 µM
COc1ccc(-c2cc(C)c3c(c2)CN(c2cnn(CC(F)(F)F)c2)C3=O)cc1OC | < 0.1 µM
COc1ccc(-c2cc(C)c3c(n2)CN(c2cnn(CC(F)(F)F)c2)C3=O)cn1 | < 0.1 µM
COc1ncc(-c2cc(C)c3c(n2)C(C)(C)N(c2cnn(CC(F)(F)F)c2)C3=O)cc1C(=O)O | < 0.1 µM
COc1cc(-c2ccc3c(c2)CN(c2cncc(C)c2)C3=O)cnc1OC | < 0.1 µM
Cc1cc(-c2cncc(C(=O)O)c2)nc2c1C(=O)N(c1cnn(CC(F)(F)F)c1)C2C (stereo unspecified) | < 0.1 µM
CCn1cc(N2C(=O)c3ccc(-c4cnc(OC)c(OC(F)F)c4)nc3C2C)cn1 (stereo unspecified) | < 0.1 µM
COc1cc(-c2ccc3c(n2)CN(c2cnn(Cc4cc(C)on4)c2)C3=O)cnc1OC | < 0.1 µM
CCOc1cncc(-c2cc(C)c3c(n2)[C@](C)(OC)N(c2cnn(CC(F)(F)F)c2)C3=O)c1 | < 0.1 µM
Cc1cc(-c2cncc(C(=O)O)c2)nc2c1C(=O)N(c1cnn(CC(F)(F)F)c1)C2(C)C | < 0.1 µM
COc1cncc(-c2cc(C)c3c(n2)CN(c2cnn(CC#N)c2)C3=O)c1 | < 0.1 µM
CCOc1cc(-c2cc(C)c3c(n2)C(C)(C)N(c2cnn(CC(F)(F)F)c2)C3=O)cnc1C | < 0.1 µM
Cc1cc(-c2cncc(C(=O)N3CCOCC3)c2)nc2c1C(=O)N(c1cnn(CC(F)(F)F)c1)C2(C)C | 0.1 to 0.49 µM
COc1ncc(-c2cc(C)c3c(n2)C(C)(C)N(c2cnn(CC(F)(F)F)c2)C3=O)cc1C(=O)NCC(C)O (stereo unspecified) | < 0.1 µM
CCOC(=O)C(F)(F)c1ccc(N2Cc3nc(-c4cnc(OC)c(OC)c4)ccc3C2=O)cn1 | 0.1 to 0.49 µM

Other lines, results leading:

Ki | SMILES
< 0.1 µM | Cc1cc(-c2cncc(OC(F)F)c2)nc2c1C(=O)N(c1cnn(C[C@H](C)O)c1)C2C (stereo partly specified)
< 0.1 µM | COc1cccc(-c2cc(C)c3c(n2)CN(c2cnn(C(C)(C)C#N)c2)C3=O)c1
< 0.1 µM | COCc1cc(N2Cc3nc(-c4cnc(OC)c(OC)c4)ccc3C2=O)nn1C
0.1 to 0.49 µM | COc1cc(-c2ccc3c(n2)C(C)N(c2cnn(C[C@@H](C)O)c2)C3=O)cnc1OC (stereo partly specified)
0.1 to 0.49 µM | CCN(C)C(=O)COc1ccc(N2Cc3nc(-c4cnc(OC)c(OC)c4)ccc3C2=O)cn1
< 0.1 µM | COc1cncc(-c2cc(C)c3c(n2)CN(c2ccn(C)n2)C3=O)c1
0.1 to 0.49 µM | COc1cc(-c2ccc3c(n2)CN(c2ccc(CN4CCOCC4)nc2)C3=O)cnc1OC
< 0.1 µM | CCOc1cncc(-c2cc(C)c3c(n2)C(C)(C)N(c2cnn(CC(F)F)c2)C3=O)c1
< 0.1 µM | CCn1cc(N2Cc3nc(-c4cnc(OC)c(OC)c4)ccc3C2=O)ccc1=O
< 0.1 µM | Cc1cc(-c2cccnc2NC(=O)C(C)(C)C)nc2c1C(=O)N(c1cnn(CC(F)(F)F)c1)C2
< 0.1 µM | COc1cncc(-c2cc(C)c3c(n2)C2(CN(C(=O)OC(C)(C)C)C2)N(c2cnn(CC(F)(F)F)c2)C3=O)c1
0.1 to 0.49 µM | CCOc1ncc(-c2cc(C)c3c(n2)C2(CCCO2)N(c2ccn(CC)n2)C3=O)cc1OC (stereo unspecified)
< 0.1 µM | COc1ncc(-c2ccc3c(c2)CN(c2cnn(CC#N)c2)C3=O)c(OC)n1
< 0.1 µM | Cc1cc(-c2cncc(OC(F)F)c2)nc2c1C(=O)N(c1cncc(CC#N)c1)C2
< 0.1 µM | COc1cc(-c2cc(C)c3c(n2)C(OC2CCC2)N(c2cnn(CC(F)(F)F)c2)C3=O)cnc1OC (stereo unspecified)
< 0.1 µM | COc1cncc(-c2cc(C)c3c(n2)CN(c2cc[nH]n2)C3=O)c1
< 0.1 µM | CCOc1ncc(-c2cc(C)c3c(n2)C2(CC2)N(c2cnn(CC(F)(F)F)c2)C3=O)cc1OC
< 0.1 µM | CCn1cc(N2Cc3nc(-c4cnc(OC)c(OC)c4)cc(C)c3C2=O)nn1
0.1 to 0.49 µM | COc1cc(-c2ccc3c(c2)CN(c2ccn(CC(N)=O)n2)C3=O)cnc1OC
< 0.1 µM | COc1cc(-c2cc(C)c3c(n2)CN(c2ccsc2)C3=O)cnc1OC
< 0.1 µM | CCOc1ncc(-c2cc(C)c3c(n2)CN(c2cncc(CCC#N)c2)C3=O)cc1OC

Ki | SMILES
< 0.1 µM | COCCOc1ncc(-c2cc(C)c3c(c2)CN(c2cnn(CC(F)(F)F)c2)C3=O)cc1OC
< 0.1 µM | COc1cc(-c2ccc3c(n2)[C@@H](C)N(c2ccn(CC(F)(F)F)n2)C3=O)cnc1OC
0.1 to 0.49 µM | CCCCOCCOc1cncc(-c2cc(C)c3c(n2)CN(c2cnn(CC(F)(F)F)c2)C3=O)c1
< 0.1 µM | COc1cc(-c2ccc3c(n2)CN(c2cnn(Cc4cccnc4C)c2)C3=O)cnc1OC
< 0.1 µM | Cc1cc(-c2cncc(S(=O)(=O)C(C)C)c2)nc2c1C(=O)N(c1cnn(CC(F)(F)F)c1)C2(C)C
< 0.1 µM | COc1cc(-c2cc(C)c3c(n2)CN(c2cc(O)[nH]n2)C3=O)cnc1OC
< 0.1 µM | COc1cc(-c2ccc3c(n2)CN(c2cnn(CC(F)(F)F)c2)C3=O)cnc1OC
< 0.1 µM | COc1cc(-c2ccc3c(n2)CN(c2cnn(C)n2)C3=O)cnc1OC
< 0.1 µM | CCOc1cc(-c2cc(C)c3c(c2)CN(c2cnn(CC#N)c2)C3=O)cnc1OCC
< 0.1 µM | COc1cc(-c2cc(C3CC3)c3c(n2)CN(c2cnn(CC(F)(F)F)c2)C3=O)cnc1OC
< 0.1 µM | COc1cc(-c2cc(C)c3c(n2)CN(c2cncc(F)c2)C3=O)cnc1OC
< 0.1 µM | COc1cc(-c2ccc3c(c2)CN(c2cnn([C@H](C)C#N)c2)C3=O)cnc1OC
< 0.1 µM | COc1cc(-c2cc(C)c3c(n2)CN(c2ccnc(OCC(F)(F)F)c2)C3=O)cnc1OC
< 0.1 µM | COc1cc(-c2ccc3c(n2)CN(c2ccc(N4CCN(CCC#N)CC4)nc2)C3=O)cnc1OC
< 0.1 µM | COc1cc(-c2ccc3c(n2)C(C)N(c2ccnc(C(C)C#N)c2)C3=O)cnc1OC (stereo unspecified)
< 0.1 µM | COc1cc(-c2ccc3c(c2)CN(c2cnn(CC(F)F)c2)C3=O)cnc1OC
< 0.1 µM | COc1cc(-c2cc(C)c3c(n2)C(O)(OC)N(c2cnn(CC(F)(F)F)c2)C3=O)cnc1OC (stereo unspecified)
< 0.1 µM | COc1cc(-c2cc(C)c3c(n2)[C@@H](C)N(c2cnn(C[C@@H](C)O)c2)C3=O)cnc1OC
0.1 to 0.49 µM | COCCn1cc(N2Cc3nc(-c4cnc(OC)c(OC)c4)ccc3C2=O)ccc1=O
< 0.1 µM | C=C1c2nc(-c3cnc(OC)c(OC)c3)ccc2C(=O)N1c1cnn(CC#N)c1
< 0.1 µM | COc1cc(-c2cc(C)c3c(n2)[C@H](C)N(c2cnn(CC(F)(F)F)c2)C3=O)cnc1C
